Where two headings read alike, the source gives them in different places.
How the values were obtained:
RAD51 [1] = molecular target: T1, RAD51 (Homo sapiens, UniProt Q06609); assay: D-loop assay (RAD51-mediated D-loop formation); format: biochemical; conditions: for Effect on D-loop structure formation: increasing concentration until 100 µM
T1 construct: His; made in house; host or cells: Escherichia coli BL21-DE3
T1 sequence (Q06609 1-339): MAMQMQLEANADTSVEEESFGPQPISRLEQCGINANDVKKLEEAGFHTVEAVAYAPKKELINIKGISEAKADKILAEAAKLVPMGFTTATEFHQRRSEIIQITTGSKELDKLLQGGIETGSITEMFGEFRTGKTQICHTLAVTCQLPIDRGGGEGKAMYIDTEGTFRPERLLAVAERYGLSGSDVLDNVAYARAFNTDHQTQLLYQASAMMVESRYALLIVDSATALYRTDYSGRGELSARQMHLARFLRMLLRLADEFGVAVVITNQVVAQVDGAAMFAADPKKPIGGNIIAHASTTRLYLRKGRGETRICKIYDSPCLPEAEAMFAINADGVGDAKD
Method: Firstly, we incubated RAD51 with increasing concentrations of DIDS (from 1 to 100 µM) and then we calculated the percent of D-loop by quantifying the shifted band in comparison to the control condition in absence of DIDS (Figure 2A).
(A) D-loop structures in presence of increasing concentration of DIDS analogs (5, 25, 50, 145, and 100 µM) were separated and visualized on agarose gel. Last lane corresponds to the control condition without DIDS-derived molecule. (B) After quantification of signal intensity of shifted band corresponding to D-loop structure, the percent of D-loop is calculated in comparison to the condition in absence of drug and presented in relation to the increasing concentration (from 1 to 100 µM) of each small molecule. Three independent experiments were performed and each error bar represents s.d. statistical analysis.
An IRD700 100 bp ssDNA probe (Integrated DNA Technologies, Leuven, Belgium) is used to assess D-loop formation activity of RAD51. Reactional buffer is prepared (25 mM Tris-HCl pH7.5; 1 mM DTT; 1 mM ATP; 1 mM CaCl2; qsp water) in the presence of 1 µM ssDNA probe. RAD51 is then added to the reaction, and the mixture is incubated for 5 min at 37 °C. Plasmid DNA (3 mM) is next added to the reaction for a final volume of 10 µL and incubated at 37 °C for 15 min. Reaction is deproteinized by adding stop buffer (20 mM Tris-HCl pH7.5; 5 mg/mL proteinase K; qsp water) and the mixture is incubated for 20 min at 37 °C.

RAD51 nucleofilament = molecular target: T2, RAD51 nucleofilament (Homo sapiens, UniProt Q06609); assay: DNA binding assay by bio-layer interferometry (BLItz), drug added after RAD51 is bound to ssDNA: nucleofilament dissociation; conditions: drug added at 40 µM after association of RAD51 with ssDNA
T2 construct: His; made in house; host or cells: Escherichia coli BL21-DE3
T2 sequence (Q06609 1-339): T1 sequence (Q06609 1-339)
Method: (§1) Figure 3 DIDS derivatives modulate the RAD51 nucleofilament formation. The association and dissociation between RAD51 and ssDNA were evaluated by Blitz interferometry. RAD51 (2 µM) was pre-incubated in phosphate buffer in absence or presence of each molecule at different concentrations before the measurement. The association phase followed until 50 s while the dissociation phase was monitored until 80 or 90 s, as indicated in graphs. (A) Effect of DIDS family on the ssDNA-RAD51 association was evaluated at 40 µM concentration of each molecule including DIDS, DADS, DAZDS, DNDS, and SITS. (B) DIDS, (C) DAZDS, and (D) SITS were incubated with RAD51 at increasing concentrations of 2, 10, and 20 µM for 5 min before the measurement by BLItz approach. (E) The percent of nucleofilament formation in presence of stilbene molecule was calculated in comparison to the condition in absence of drug after 50 s. This percentage was presented in function to the increasing concentration (from 2 to 20 µM) of each small molecule. (F) RAD51 associates with ssDNA until 50 s, and then each molecule is added at 40 µM as indicated by the narrow in the graph.
To this purpose, we incubated RAD51 with ssDNA, then we added the drug, and we measured the dissociation kinetic of RAD51 nucleofilament (Figure 3F).
(§2) PolydT DNA (1 µM) is biotinylated to allow its binding to the streptavidin-coated biosensor. Two methods of evaluation are used: the former by pre-incubating RAD51 with the drug to test and the latter by adding the drug after RAD51 is bound to DNA. In the first case, 2 µM RAD51 is incubated with the drug for […] on ice, then RAD51-ssDNA binding measurement is performed (baseline phase: 10 s; association phase: 40 s; dissociation phase: 30 s). In the second case, RAD51-ssDNA binding is analyzed, and after the association phase, the drug is added to the reaction and dissociation effect is measured (baseline phase: 10 s; association phase: 50 s; dissociation phase: 40 s). For the two cases, reaction buffer is composed of Phosphate Buffer saline (PBS) and 1 mM ATP. The tip is regenerated with 50 mM NaOH during 40 s before reuse. Measures are realized on a BLItz device from ForteBio.

RAD51 [2] = molecular target: T1, RAD51; assay: RAD51 self-association by BS3 chemical cross-linking; format: biochemical; conditions: 50 µM of drug; for Effect on oligomer/monomer migration profile (self-association of RAD51): RAD51 8.5 µM, BS3 cross-link, SDS-PAGE; for Decrease of polymerization rate (oligomer/monomer form intensity ratio): three independent experiments
Source text: The mechanism of action of these DIDS analogs molecules remains unclear, but they probably act on the protein–protein interaction site of RAD51. In order to assess their possible effect on the subunit–subunit RAD51 association, we investigated the oligomerization level of RAD51 in presence of these small molecules. By using BS3 cross-linker, we fixed the quaternary structure of RAD51 in absence or in presence of the five stilbene molecules. Oligomer and monomer forms were separated on SDS-PAGE and stained with Coomassie blue (Figure 4A). Oligomer forms include dimer, trimer, and high polymer while monomer form is well separated at 37 kDa.
Figure 4 Self-association of RAD51 is inhibited in the presence of DIDS, SITS, and DAZDS. (A) The polymerization of RAD51 was estimated by cross-link approach (see Material and Method section). (B) Oligomer and monomer forms ratio is presented as a histogram graph. Three independent experiments were performed and statistical analysis was performed using paired Student’s t-test. Statistical significance was assumed at ** p < 0.01, *** p < 0.001. Each error bar represents s.d. statistical analysis.
RAD51 at 8.5 µM was incubated with the indicated concentrations of chemical compounds for 5 min at room temperature in a buffer containing 20 mM sodium phosphate, 50 mM azidol, 1 mM MgCl2, and 1 mM ATP. The protein was cross-linked with 4.2 µM of BS3 (bis(sulfosuccinimidyl)suberate, Sigma) at room temperature for 30 min. Then the reaction was stopped by addition of Tris-HCl pH 8.1 at final concentration 33 mM for 15 min at room temperature. The sample was separated by SDS-PAGE at 10% and analyzed by Western blotting. Anti-RAD51 rabbit antibody was used as primary antibody (Sigma-Aldrich Cat# SAB2101936, RRID:AB_10607384), then secondary anti-rabbit antibody conjugated to alexafluor 680 (GAR 700: Molecular Probes Cat# A-21076, RRID:AB_2535736) was used for the detection. The quantification of monomer and cross-linked oligomers was performed by an Odyssey infrared imaging system scanner (LI-COR, Biosciences, Lincoln, NE, USA).

RAD51 [3] = molecular target: T1, RAD51; assay: DNA binding assay by bio-layer interferometry (BLItz), RAD51 pre-incubated with drug: ssDNA-RAD51 association / nucleofilament formation; conditions: for inhibition at 20 µM: read-out: Inhibition of the association of RAD51 with ssDNA (reduction of nucleofilament formation); for Effect on ssDNA-RAD51 association: RAD51 2 µM pre-incubated with drug, 40 µM of each molecule (Figure 3A)
Method: We have evaluated the steps preceding D-loop formation, namely the formation of the nucleofilament of RAD51. We investigated the effect of DIDS and its derivatives on ssDNA binding and the nucleofilament formation functions of RAD51 by bio-layer interferometry. Two approaches were undertaken: (i) to determine the impact of drugs on RAD51-ssDNA binding and (ii) to evaluate the ability of drugs to dissociate RAD51 nucleofilament. Concerning the first approach, we pre-incubated RAD51 with the drug of interest for 5 min before measuring ssDNA-RAD51 binding efficiency. […] At a concentration of 20 μM, DAZDS inhibits the association of RAD51 with ssDNA by more than 80% (Figure 3C,E), while at the same concentration the SITS slightly reduces the formation of the nucleofilament by about 10–20% (Figure 3D,E).
as §1, §2

[4] = test system: fibroblast and prostatic cancer cells; assay: Cytotoxicity (data not shown); format: cell-based
[5] = design: method as in PMID 18642799; conditions: aqueous solution ref 30; cited from earlier work
RAD51 [6] = test system: RAD51; design: method as in PMID 19336413; conditions: absence or presence of ATP has no influence ref 20; cited from earlier work
RAD51 foci formation = test system: RAD51 foci formation; design: method as in earlier work; conditions: leukemia cells / B cells ref 21, Muramatsu et al.; cited from earlier work
RAD51 (Homo sapiens) = assay: BLI; conditions: 1 mM ATP, RAD51 pre-incubated with DAZDS 20 uM, BLI (BLItz): PBS, 2 uM RAD51, biotinylated polydT 1 uM on streptavidin sensor, drug pre-incubation 10 min on ice (Methods; 5 min in Results), assay …
[7] = D-loop formation by RAD51, 1 to 100 µM of each molecule, three independent experiments, read-out: IC50 determination from D-loop data

| Molecule | IC50 (RAD51 [1]; [7]) | Effect on D-loop structure formation (RAD51 [1]) | Effect on nucleofilament stability (dissociation of RAD51 nucleofilament) (RAD51 nucleofilament) | Effect on oligomer/monomer migration profile (self-association of RAD51) (RAD51 [2]) | Decrease of polymerization rate (oligomer/monomer form intensity ratio) (RAD51 [2]) | inhibition at 20 µM (RAD51 [3]; 20 µM of drug, RAD51 2 µM pre-incubated, after 50 s) | Effect on ssDNA-RAD51 association (RAD51 [3]) | Cytotoxicity ([4]; cells not given, in contrast to DIDS) | RAD51 nucleofilament formation (RAD51 [3]; from 10 µM of drug, RAD51 2 µM pre-incubated) | Cytotoxicity ([4]; fibroblast and prostatic cancer cells, data not shown) | Stability in aqueous solution [5] | RAD51 binding to ssDNA or dsDNA in the presence of the drug (RAD51 [6]) | RAD51 foci formation (RAD51 foci formation) | IC50 (RAD51 [1]) | IC50 (RAD51 [1]; read-out: IC50 determination from D-loop data, D-loop formation by RAD51, 1 to 100 µM of each molecule, three independent experiments) | inhibition at 20 µM (RAD51 [3]) | binding signal (% inhibition of association) (RAD51 (Homo sapiens)) |
| --- | --- | --- | --- | --- | --- | --- | --- | --- | --- | --- | --- | --- | --- | --- | --- | --- | --- |
| Nc1ccc(C=Cc2ccc(N)cc2S(=O)(=O)O)c(S(=O)(=O)O)c1 [DADS, 4,4′-diaminostilbene-2,2′-disulfonic acid] | > 100 µM | no effect | not able to dissociate the nucleofilament | no effect on the self-association of RAD51 | no effect |  |  |  |  |  |  |  |  |  |  |  |  |
| [N-]=[N+]=Nc1ccc(C=Cc2ccc(N=[N+]=[N-])cc2S(=O)(=O)O)c(S(=O)(=O)O)c1 [DAZDS, 4,4′-diazidostilbene-2,2′-disulfonic acid] | 41.3 µM | significant inhibitory effect | totally dissociated the structure | decrease of oligomer forms in favor of RAD51 monomer | about 40% | > 80% | inhibitory effect | weak cytotoxicity |  |  |  |  |  |  |  |  |  |
| O=S(=O)(O)c1cc(N=C=S)ccc1C=Cc1ccc(N=C=S)cc1S(=O)(=O)O [DIDS, 4,4′-diisothiocyanatostilbene-2,2′-disulfonic acid] | 0.9 µM | inhibits D-loop intermediate structure in a dose-dependent manner | totally dissociated the structure | decrease of oligomer forms in favor of RAD51 monomer | about 40% |  | inhibitory effect |  | totally inhibited | relatively cytotoxic | unstable in aqueous solution | unable to bind ssDNA or dsDNA | inhibit RAD51 foci formation |  |  |  |  |
| O=[N+]([O-])c1ccc(C=Cc2ccc([N+](=O)[O-])cc2S(=O)(=O)O)c(S(=O)(=O)O)c1 [DNDS, 4,4′-dinitrostilbene-2,2′-disulfonic acid] |  | no effect | not able to dissociate the nucleofilament | no effect on the self-association of RAD51 | no effect |  |  |  |  |  |  |  |  | > 100 µM | ≤ 100 µM |  |  |
| CC(=O)Nc1ccc(C=Cc2ccc(N=C=S)cc2S(=O)(=O)O)c(S(=O)(=O)O)c1 [SITS, 4-acetamido-4′-isothiocyanatostilbene-2,2′-disulfonic acid] |  | significant inhibitory effect |  | decrease of oligomer forms in favor of RAD51 monomer | about 40% |  | inhibitory effect |  |  |  |  |  |  | 29 µM |  | 10 to 20% |  |
| polydT |  |  |  |  |  |  |  |  |  |  |  |  |  |  |  |  | > 80 |

Reference: article PMC8466854, “Molecular Determinant of DIDS Analogs Targeting RAD51 Activity” (Molecules, 2021)
